Assay results: article PMC5835975, “[^64Cu]NOTA-pentixather enables high resolution PET imaging of CXCR4 expression in a preclinical lymphoma model” (EJNMMI Radiopharmacy and Chemistry, 2017)
Where two headings read alike, the source gives them in different places. Where a SMILES comes first, the peptide text is derived from it. Side-chain parts run from the residue outwards. [ ]: non-standard residue; d: D form. The star is where a group is joined. NODAGA = O=C(O)CN1CCN(CC(=O)O)CCN(C(CCC(=O)*)C(=O)O)CC1; NOTA = O=C(O)CN1CCN(CC(=O)O)CCN(CC(=O)*)CC1; dTyr(3-I) = N[C@H](Cc1ccc(O)c(I)c1)C(=O)O; 2Nal = N[C@@H](Cc1ccc2ccccc2c1)C(=O)O; dNMeOrn = CN[C@H](CCCN)C(=O)O; 4Amb = NCc1ccc(C(=O)O)cc1

What was measured:
[1] = system: Daudi xenograft-bearing CB-17 SCID mice; conditions: mouse, in vivo
Procedure: (§1) Biodistribution data of [^64Cu]NOTA-pentixather at 1.5 h p.i. (n = 5, black bars) and 24 h p.i. Given the fact that Jurkat cells, which are generally used for the determination of CXCR4 affinity, are not tumorigenic in mice and to ensure comparability of data with previous studies (Poschenrieder et al. [2016a]; Wester et al. [2015]; Schottelius et al. [2015]), the Daudi lymphoma model was also used in this study. […] While the tumor-to-background ratios for most tissues remain unchanged or decrease within the observation period, t/blood and t/intestine ratios increase 1.3 and 2.4 fold between 1.5 and 24 h p.i., respectively.
(§2) Fig. 3 Biodistribution of [^64Cu]NOTA-pentixather at 1.5 h (tracer only, black bars, n = 5) and 24 h p.i. (grey bars, n = 6) in Daudi xenograft-bearing CB-17 SCID mice. Mice were injected with 5.2 MBq [^64Cu]NOTA-pentixather (122 pmol/0.160 μg peptide; AS = 43 GBq/μmol). Non-specific tracer accumulation was determined by coinjection of 2 mg/kg AMD3100 (50 μg/mouse; white bars, n = 3)
(§3) For PET and biodistribution studies, an average of 5.2 MBq [^64Cu]NOTA-pentixather (200 μL in PBS, 122 pmol, 160 ng) with a SA of 43 GBq/μmol was injected intravenously into the tail vein of isofluorane anaesthesized female Daudi (human B-cell lymphoma) xenograft bearing CB17 SCID mice. […] PET imaging with [^64Cu]NOTA-pentixather under ‘tracer only’ (n = 2) as well as blocking conditions (coinjection of 2 mg/kg AMD3100, n = 1) was performed at three different time points (dynamic PET imaging for 1 h, followed by static image acquisition for 15 min after 3.5 and 24 h) using an Inveon Siemens μPET scanner. PET/CT images were reconstructed by a two-dimensional ordered subset expectation maximum (2D-OSEM) algorithm with no attenuation correction. Image analysis was performed using the Inveon software, and results were calculated as %ID/g. For biodistribution studies, the mice were sacrificed at 1.5 h (n = 5) and 24 h (n = 6) p.i., tissues and organs of interest were dissected, weighed, and counted for radioactivity in a γ-counter. The percentage of injected dose per gram of tissue (% ID/g) was calculated; data are presented as mean ± SD.

[2] = parameters: species or system mice; conditions: mouse, in vivo, iv
Procedure: as §1, §2, §3

[3] = type: physicochemical; conditions: pH 7.4
Procedure: The lipophilicity and serum stability of [^64Cu]NOTA-pentixather were determined as described previously (Poschenrieder et al. [2016a]). Briefly, to a solution of app. 2 kBq of radiolabelled peptide in 500 μL of PBS (pH 7.4), 500 μL of octanol were added (n = 6). Vials were vortexed vigorously for 3 min. To achieve quantitative phase separation, the vials were centrifuged at 14,600 · g for 6 min in a Biofuge 15 (Heraeus Sepatech, Osterode, Germany). The activity concentrations in 100 μL samples of both the aqueous and the organic phase were measured in a gamma counter, and the log Pow was calculated.

[4] = type: physicochemical; conditions: buffer, 24 h, pH 2.5
Procedure: To investigate the in vitro stability of [^64Cu]NOTA-pentixather, the tracer was incubated both in human serum at 37 °C and in 0.1 M EDTA at pH = 2.5 and physiological pH (7.4) at RT for different time points up to 24 h (Fig. 7). [^64Cu]NOTA-pentixather remained stable over 24 h in human serum (>99% intact ^64Cu-chelate).
Fig. 7 In vitro stability of [^64Cu]NOTA-pentixather as a function of incubation time.
For challenging experiments, 4 MBq of [^64Cu]NOTA-pentixather were incubated in 0.1 M EDTA at different pH values (2.5 and 7.4) for a minimum of 24 h. At specific time points, samples were analyzed via radio-TLC using silica gel impregnated chromatography paper (Agilent Technologies, CA, USA) and 0.1 M phosphate buffer (pH = 7.4) containing 10 mM sodium EDTA as the mobile phase.

human CXCR4 = target: T1, human CXCR4 (Homo sapiens, UniProt P61073); experiment: Competitive binding assay on Jurkat T-cell leukemia cells with [^125I]FC131 as radioligand; conditions: Jurkat cells 400.000 cells/sample, [^125I]FC131 radioligand, mean ± SD, min. three determinations
T1 construct: CXCR4-expressing Jurkat T-lymphocytes (4 × 10^5 cells per sample); endogenous in cells; host or cells: Jurkat T-cell leukemia cells
T1 sequence (P61073 whole entry): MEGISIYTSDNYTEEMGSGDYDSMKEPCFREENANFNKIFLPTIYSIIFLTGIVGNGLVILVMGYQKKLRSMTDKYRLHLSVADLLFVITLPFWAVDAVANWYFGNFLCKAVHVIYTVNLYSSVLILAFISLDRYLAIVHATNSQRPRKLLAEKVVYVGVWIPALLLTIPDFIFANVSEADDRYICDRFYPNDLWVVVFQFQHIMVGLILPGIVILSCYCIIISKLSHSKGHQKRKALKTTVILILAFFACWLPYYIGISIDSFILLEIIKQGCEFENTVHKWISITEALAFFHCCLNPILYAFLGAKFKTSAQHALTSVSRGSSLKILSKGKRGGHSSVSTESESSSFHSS
Procedure: The CXCR4 affinities of [^natCu]NOTA- and [^natCu]NODAGA-pentixather as well as of the corresponding metal free chelator-conjugated peptides were determined in a competitive binding assay using standard conditions (CXCR4-expressing Jurkat T-lymphocytes (4 × 10^5 cells per sample) and [^125I]FC131 as the radioligand (Poschenrieder et al. [2016a]; Wester et al. [2015]; Schottelius et al. [2015]; Poschenrieder et al. [2016b])) (Table 1). Data for [^natGa]pentixafor and FC131 are included as a reference. As already observed for [^natGa]pentixafor, metal complexation leads to enhanced CXCR4 affinity, both for [^natCu]NOTA-pentixather and for [^natCu]NODAGA-pentixather.
CXCR4 affinities were determined using Jurkat T-cell leukemia cells and [^125I]FC131 as the radioligand (Poschenrieder et al. [2016b]). Briefly, cells (4 × 10^5 cells per vial) were incubated with app. 0.1 nM of [^125I]FC131 in the presence of varying concentrations (10^−11 to 10^−5 M) of the respective peptide of interest (n = 3 samples/concentration) for 120 min at RT. After centrifugation and repeated washing steps, the amount of free and bound radioligand were quantified for each sample using a γ-counter, and IC50 values were calculated using GraphPad Prism 6.01 software.

increase of t/blood ratio [1] | increase of t/intestine ratio [1] | tissue uptake at 1.5 h ([2]; Tumor uptake) | tissue uptake at 1.5 h ([2]; accumulation in the intestines) | tissue uptake at 1.5 h ([2]; accumulation in the liver) | tissue uptake at 1.5 h ([2]; activity accumulation in the kidney) | tissue uptake at 1.5 h ([2]; activity in blood) | logP [3] | tracer remaining intact [4] | IC50 (human CXCR4) | SMILES
1.3 fold | 2.4 fold | 13.1 ± 1.5 %ID/g | 5 ± 2.8 %ID/g | 7.2 ± 1.1 %ID/g | 3.8 ± 0.5 %ID/g | 1.1 ± 0.2 %ID/g | -1.2 | over 90% |  | CN1C(=O)[C@@H](Cc2ccc(O)c(I)c2)NC(=O)CNC(=O)[C@H](Cc2ccc3ccccc3c2)NC(=O)[C@H](CCCNC(=N)N)NC(=O)[C@H]1CCCNC(=O)c1ccc(CNC(=O)CN2CCN(CC(=O)O)CCN(CC(=O)O)CC2)cc1 [[^64Cu]NOTA-pentixather, metal not drawn] (cyclo([dTyr(3-I)][dNMeOrn]([4Amb-NOTA])R[2Nal]G))
 |  |  |  |  |  |  |  |  | 64.9 ± 6.5 nM | CN1C(=O)[C@@H](Cc2ccc(O)c(I)c2)NC(=O)CNC(=O)[C@H](Cc2ccc3ccccc3c2)NC(=O)[C@H](CCCNC(=N)N)NC(=O)[C@H]1CCCNC(=O)c1ccc(CNC(=O)CCC(C(=O)O)N2CCN(CC(=O)O)CCN(CC(=O)O)CC2)cc1 (stereo partly shown) [NODAGA-pentixather] (cyclo([2Nal]G[dTyr(3-I)][dNMeOrn]([4Amb-NODAGA])R))
